Literature values, collected in patent publication US20160231323A1, “PROTECTION OF TCR SIGNALING CHAINS IN CANCER PATIENTS AND ENHANCEMENT OF CAR-T CELL THERAPY” (Batu Biologics, Inc., priority 2015, published 2016).

Key:
[1] = tested on: sepsis-induced immune suppression; details: animals undergoing experimental sepsis
[2] = tested on: plasma CRP; details: 1000 mg/day for 2 months, healthy nonsmokers, versus vitamin E or placebo
[3] = tested on: HIF-1 alpha; details: results in suppressed angiogenic activity
[4] = tested on: proliferating tumor endothelial cells
[5] = tested on: tumors; details: paradoxical oxidative mechanism
[6] = tested on: CD8(+) effector and effector memory T cells; details: mice given vitamin C treated DC loaded with tumor lysate
[7] = tested on: PGE 2; details: several animal models
[8] = tested on: constitutively activated neutrophils
[9] = tested on: markers of oxidative stress; details: smokers
[10] = tested on: Kaposi Sarcoma; details: oral administration
[11] = tested on: TCR-ζ; details: addition to co-incubation of cancer patient neutrophils with healthy lymphocytes
[12] = tested on: IFN-[…] and IL-2 production; details: daily dose of 750 mg for 2 weeks, Duke's C and D colorectal cancer

O=C1O[C@H]([C@@H](O)CO)C(O)=C1O [ascorbic acid]
immune suppression in experimental sepsis [1]: blocked immune suppression
plasma CRP levels [2]: statistically significant decrease
tumor expression of HIF-1 alpha [3]: reduce tumor expression of HIF-1 alpha
effect on proliferating tumor endothelial cells [4]: Direct suppression
effect on tumors [5]: direct killing effect
frequency of effector and effector memory T cells ([6]; versus control DC): higher frequency
ex vivo killing of tumor cells by the T cells ([6]; versus controls): increased ex vivo killing effect

COc1ccc2c(c1)c(CC(=O)O)c(C)n2C(=O)c1ccc(Cl)cc1 [indomethacin]
metastatic progression [7]: significantly impedes metastatic progession

CC(=O)N[C@@H](CS)C(=O)O [n-acetylcysteine]
immune suppression in experimental sepsis [1]: blocked immune suppression
clinical effect in sepsis ([8]; as a monotherapy): little clinical effect
constitutively activated neutrophils in sepsis patients ([8]; therapeutic administration): suppression of the constitutively activated neutrophils
markers of oxidative stress [9]: suppression of markers of oxidative stress
angiogenesis [10]: blocks angiogenesis
growth of Kaposi Sarcoma [10]: suppresses growth of Kaposi Sarcoma

catalase
TCR-ζ downregulation [11]: suppressed TCR-ζ downregulation

vitamin E
IFN-[…] and IL-2 production [12]: restoration of IFN-[…] and IL-2 production
